Test results as given in patent EP4755888A1 (ILAb Co., Ltd., priority 2023, dated 2025).

Molecular target: PD-1/PD-L1 (Homo sapiens, UniProt Q9NZQ7)
Test: TR-FRET PD-1/PD-L1 binding inhibition at the molecular level (free proteins)
Details: Tag1-PD-L1 and Tag2-PD-1 proteins, twelve concentrations from 200 nM, 2 hours at room temperature, read-out: FRET assay (IC50)
Summary of the method: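 HTRF read-out at 665/620 nm after 2 h at room temperature. Detection used anti-Tag1 Eu cryptate plus anti-Tag2 XL665 antibodies. Tagged PD-L1 and PD-1 proteins were pre-mixed with compound across twelve […] 1:2 dilutions starting at 200 nM.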

PD-1/PD-L1, sequence (Q9NZQ7 19-238 limits assumed): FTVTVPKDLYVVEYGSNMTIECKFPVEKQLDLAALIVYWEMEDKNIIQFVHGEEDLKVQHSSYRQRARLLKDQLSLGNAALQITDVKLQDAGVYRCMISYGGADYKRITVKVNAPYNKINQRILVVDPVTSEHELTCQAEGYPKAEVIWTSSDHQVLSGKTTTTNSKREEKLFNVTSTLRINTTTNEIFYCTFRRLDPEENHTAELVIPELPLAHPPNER

Structure (SMILES) | IC50 [nM]
Cn1c(C(=O)Nc2cccc(-c3cccc(NC(=O)c4cc5n(n4)CCCC5N4CC[C@@H](C(=O)O)C4)c3Cl)c2Cl)nc2c1CCN(CCC13CCC(C(=O)O)(CC1)C3)C2 (stereo partly drawn) [Compound 57, (3R)-1-(2-((3'-(5-(2-(4-carboxybicyclo[2.2.1]heptan-1-yl)ethyl)-1-methyl-4,5,6,7-tetrahydro-1H-imidazo[4,5-c]pyridine-2-carboxamido)-2,2'-dichloro-[1,1'-biphenyl]-3-yl)carbamoyl)-4,5,6,7-tetrahydropyrazolo[1,5-a]pyridin-4-yl)pyrrolidine-3-carboxylic acid] | < 10
CN[C@@H]1CCCn2nc(C(=O)Nc3cccc(-c4cccc(NC(=O)c5ccc(CN6CC[C@@H](O)C6)cn5)c4Cl)c3Cl)cc21 [Compound 351, (R)-N-(2,2'-dichloro-3'-(5-(((R)-3-hydroxypyrrolidin-1-yl)methyl)picolinamido)-[1,1'-biphenyl]-3-yl)-4-(methylamino)-4,5,6,7-tetrahydropyrazolo[1,5-a]pyridine-2-carboxamide] | 10 to 100
O=C(Nc1cccc(-c2cccc(Nc3nccc4cc(CN5CC(F)C5)cnc34)c2Cl)c1Cl)c1cc2n(n1)CCC[C@@H]2N1CCC(C(=O)O)CC1 [Compound 283, (S)-1-(2-((2,2'-dichloro-3'-((3-((3-fluoroazetidin-1-yl)methyl)-1,7-naphthyridin-8-yl)amino)-[1,1'-biphenyl]-3-yl)carbamoyl)-4,5,6,7-tetrahydropyrazolo[1,5-a]pyridin-4-yl)piperidine-4-carboxylic acid] | 10 to 100
Cc1c(NC(=O)c2cc3n(n2)CCCC3N2CC[C@@H](O)C2)cccc1-c1cccc(-c2cc3n(n2)CCCC3NCCO)c1C (stereo partly drawn) [Compound 160, N-(3'-(4-((2-hydroxyethyl)amino)-4,5,6,7-tetrahydropyrazolo[1,5-a]pyridin-2-yl)-2,2'-dimethyl-[1,1'-biphenyl]-3-yl)-4-((R)-3-hydroxypyrrolidin-1-yl)-4,5,6,7-tetrahydropyrazolo[1,5-a]pyridine-2-carboxamide] | 10 to 100
O=C1CC[C@@H](CNC2CCCn3nc(-c4cccc(-c5cccc(Nc6nccc7cc(CN8CC[C@@H](O)C8)cnc67)c5Cl)c4Cl)cc32)N1 (stereo partly drawn) [Compound 182, (5S)-5-(((2-(2,2'-dichloro-3'-((3-(((R)-3-hydroxypyrrolidin-1-yl)methyl)-1,7-naphthyridin-8-yl)amino)-[1,1'-biphenyl]-3-yl)-4,5,6,7-tetrahydropyrazolo[1,5-a]pyridin-4-yl)amino)methyl)pyrrolidin-2-one] | 10 to 100
CN[C@@H]1CCCn2nc(C(=O)Nc3cccc(-c4cccc(NC(=O)c5ccc(CN6CC[C@@H](O)C6)cn5)c4C)c3C)cc21 [Compound 349, (R)-N-(3'-(5-(((R)-3-hydroxypyrrolidin-1-yl)methyl)picolinamido)-2,2'-dimethyl-[1,1'-biphenyl]-3-yl)-4-(methylamino)-4,5,6,7-tetrahydropyrazolo[1,5-a]pyridine-2-carboxamide] | 10 to 100
O=C(Nc1cccc(-c2cccc(NC(=O)c3cc4n(n3)CCCC4N3CC[C@@H](O)C3)c2Cl)c1Cl)c1ccc(CN2CC[C@@H](O)C2)cn1 (stereo partly drawn) [Compound 101, N-(2,2'-dichloro-3'-(5-(((R)-3-hydroxypyrrolidin-1-yl)methyl)picolinamido)-[1,1'-biphenyl]-3-yl)-4-((R)-3-hydroxypyrrolidin-1-yl)-4,5,6,7-tetrahydropyrazolo[1,5-a]pyridine-2-carboxamide] | 10 to 100
Cc1c(NC(=O)c2cc3n(n2)CCC[C@@H]3N2CCC(O)CC2)cccc1-c1cccc(Nc2nc(C(F)(F)F)nc3cccnc23)c1C (stereo in doubt) [Compound 286, (S)-N-(2,2'-dimethyl-3'-((2-(trifluoromethyl)pyrido[3,2-d]pyrimidin-4-yl)amino)-[1,1'-biphenyl]-3-yl)-4-(4-hydroxypiperidin-1-yl)-4,5,6,7-tetrahydropyrazolo[1,5-a]pyridine-2-carboxamide] | 10 to 100

Results, then the molecule that gave them:

IC50 [nM] | Structure (SMILES)
10 to 100 | Cc1c(Nc2nccc3cc(CN4CC[C@@H](O)C4)cnc23)cccc1-c1cccc(NC(=O)c2cc3n(n2)CCCC3O)c1Cl (stereo partly drawn) [Compound 36, N-(2-chloro-3'-((3-(((R)-3-hydroxypyrrolidin-1-yl)methyl)-1,7-naphthyridin-8-yl)amino)-2'-methyl-[1,1'-biphenyl]-3-yl)-4-hydroxy-4,5,6,7-tetrahydropyrazolo[1,5-a]pyridine-2-carboxamide]
< 10 | O=C(Nc1cccc(-c2cccc(NC(=O)c3cc4n(n3)CCC[C@H]4N3CC[C@@H](O)C3)c2Cl)c1Cl)c1ccc(CNCCO)cn1 [Compound 244, (R)-N-(2,2'-dichloro-3'-(5-(((2-hydroxyethyl)amino)methyl)picolinamido)-[1,1'-biphenyl]-3-yl)-4-((R)-3-hydroxypyrrolidin-1-yl)-4,5,6,7-tetrahydropyrazolo[1,5-a]pyridine-2-carboxamide]
< 10 | Cc1c(NC(=O)c2ccc(CNCCO)cn2)cccc1-c1cccc(NC(=O)c2cc3n(n2)CCCC3N2CC[C@@H](C(=O)O)C2)c1C (stereo partly drawn) [Compound 77, (3R)-1-(2-((3'-(5-(((2-hydroxyethyl)amino)methyl)picolinamido)-2,2'-dimethyl-[1,1'-biphenyl]-3-yl)carbamoyl)-4,5,6,7-tetrahydropyrazolo[1,5-a]pyridin-4-yl)pyrrolidine-3-carboxylic acid]
< 10 | Cc1c(NC(=O)c2ccc(CN3CC[C@@H](O)C3)cn2)cccc1-c1cccc(NC(=O)c2cc3n(n2)CCCC3NC(C)(C)C(=O)O)c1C (stereo partly drawn) [Compound 99, 2-((2-((3'-(5-(((R)-3-hydroxypyrrolidin-1-yl)methyl)picolinamido)-2,2'-dimethyl-[1,1'-biphenyl]-3-yl)carbamoyl)-4,5,6,7-tetrahydropyrazolo[1,5-a]pyridin-4-yl)amino)-2-methylpropanoic acid]
< 10 | CC(=O)NCCNC1CCCn2nc(C(=O)Nc3cccc(-c4cccc(NC(=O)c5ccc(CN6CC[C@@H](O)C6)cn5)c4C)c3C)cc21 (stereo partly drawn) [Compound 94, 4-((2-acetamidoethyl)amino)-N-(3'-(5-(((R)-3-hydroxypyrrolidin-1-yl)methyl)picolinamido)-2,2'-dimethyl-[1,1'-biphenyl]-3-yl)-4,5,6,7-tetrahydropyrazolo[1,5-a]pyridine-2-carboxamide]
< 10 | COc1cc(C(=O)Nc2cccc(-c3cccc(NC(=O)c4cc5n(n4)CCCC5NCC(=O)O)c3Cl)c2Cl)cc(F)c1CNCCO (stereo not drawn) [Compound 190, 2-((2-((2,2'-dichloro-3'-(3-fluoro-4-(((2-hydroxyethyl)amino)methyl)-5-methoxybenzamido)-[1,1'-biphenyl]-3-yl)carbamoyl)-4,5,6,7-tetrahydropyrazolo[1,5-a]pyridin-4-yl)amino)acetic acid]
< 10 | Cc1c(NC(=O)c2cc3n(n2)CCCC3NCC(=O)O)cccc1-c1cccc(Nc2nccc3cc(CN4CC[C@@H](O)C4)cnc23)c1Cl (stereo partly drawn) [Compound 41, 2-((2-((2'-chloro-3'-((3-(((R)-3-hydroxypyrrolidin-1-yl)methyl)-1,7-naphthyridin-8-yl)amino)-2-methyl-[1,1'-biphenyl]-3-yl)carbamoyl)-4,5,6,7-tetrahydropyrazolo[1,5-a]pyridin-4-yl)amino)acetic acid]
< 10 | O=C(O)CNC1CCCn2nc(C(=O)Nc3cccc(-c4cccc(NC(=O)c5cc6n(n5)CCCC6NCC(=O)O)c4Cl)c3Cl)cc21 (stereo not drawn) [Compound 8, 2-[[2-[[3-[3-[[4-(carboxymethylamino)-4,5,6,7-tetrahydropyrazolo[1,5-a]pyridine-2-carbonyl]amino]-2-chlorophenyl]-2-chlorophenyl]carbamoyl]-4,5,6,7-tetrahydropyrazolo[1,5-a]pyridin-4-yl]amino]acetic acid]
< 10 | O=C(Nc1cccc(-c2cccc(Nc3nccc4cc(CN5CC[C@H](O)C5)cnc34)c2Cl)c1Cl)c1cc2n(n1)CCCC2N1CCC(O)CC1 (stereo partly drawn) [Compound 97, N-(2,2'-dichloro-3'-((3-(((S)-3-hydroxypyrrolidin-1-yl)methyl)-1,7-naphthyridin-8-yl)amino)-[1,1'-biphenyl]-3-yl)-4-(4-hydroxypiperidin-1-yl)-4,5,6,7-tetrahydropyrazolo[1,5-a]pyridine-2-carboxamide]
< 10 | Cc1c(NC(=O)c2cc3n(n2)CCCC3NCCO)cccc1-c1cccc(NC(=O)c2cc3n(n2)CCCC3NCCO)c1C (stereo not drawn) [Compound 6, N,N'-(2,2'-dimethyl-[1,1'-biphenyl]-3,3'-diyl)bis(4-((2-hydroxyethyl)amino)-4,5,6,7-tetrahydropyrazolo[1,5-a]pyridine-2-carboxamide)]
< 10 | O=C(Nc1cccc(-c2cccc(NC(=O)c3cc4n(n3)CCCC4N3CC[C@@H](C(=O)O)C3)c2Cl)c1Cl)c1ccc(CNCCO)cn1 (stereo partly drawn) [Compound 86, (3R)-1-(2-((2,2'-dichloro-3'-(5-(((2-hydroxyethyl)amino)methyl)picolinamido)-[1,1'-biphenyl]-3-yl)carbamoyl)-4,5,6,7-tetrahydropyrazolo[1,5-a]pyridin-4-yl)pyrrolidine-3-carboxylic acid]
< 10 | COc1cc(C(=O)Nc2cccc(-c3cccc(NC(=O)c4cc5n(n4)CCCC5N4CC[C@@H](C(=O)O)C4)c3Cl)c2Cl)cc(F)c1CNCC(=O)O (stereo partly drawn) [Compound 195, (3R)-1-(2-((3'-(4-(((carboxymethyl)amino)methyl)-3-fluoro-5-methoxybenzamido)-2,2'-dichloro-[1,1'-biphenyl]-3-yl)carbamoyl)-4,5,6,7-tetrahydropyrazolo[1,5-a]pyridin-4-yl)pyrrolidine-3-carboxylic acid]
< 10 | O[C@@H]1CCN(Cc2cnc3c(Nc4cccc(-c5cccc(-c6cc7n(n6)CCCC7N6CC[C@@H](O)C6)c5Cl)c4Cl)nccc3c2)C1 (stereo partly drawn) [Compound 183, (3R)-1-(2-(2,2'-dichloro-3'-((3-(((R)-3-hydroxypyrrolidin-1-yl)methyl)-1,7-naphthyridin-8-yl)amino)-[1,1'-biphenyl]-3-yl)-4,5,6,7-tetrahydropyrazolo[1,5-a]pyridin-4-yl)pyrrolidin-3-ol]
